Results published in patent US20120322842A1, “HETEROCYCYL-SUBSTITUTED-ALKYLAMINOPHENYL DERIVATIVES, THEIR PREPARATION AND USE AS MEDICAMENTS” (LABORATORIOS DEL DR. ESTEVE, S.A., priority 2009, published 2012).

What follows are compounds tested against T1, Cloned Human Serotonin Receptor, Subtype 7 (h5HT7) (Homo sapiens, UniProt P34969) (assay: Radioligand binding assay, [125I]LSD, cloned human 5-HT7 receptor expressed in CHO cells (Flashplate)). Conditions: not given.
T1 construct: purchased PerkinElmer 6120512; host or cells: CHO cells
Method: Radioligand binding assays were performed using the Cloned Human Serotonin Receptor, Subtype 7 (h5HT7), expressed in CHO cells, coated on Flashplate (Basic FlashPlate Cat.: SMP200) from PerkinElmer (Cat.: 6120512). The protocol assay was essentially the recommended protocol in the Technical Data Sheet by PerkinEmer Life and Analytical Sciences. The Mass membrane protein/well was typically […] and the Receptor/well was about 9-10 fmoles. The Flashplate were let equilibrate at room temperature for one hour before the addition of the components of the assay mixture. The binding buffer was: 50 mM Tris-HCl, pH 7.4, containing 10 mM MgCl2, 0.5 mM EDTA and 0.5% BSA. The radioligand was [^125I]LSD at a final concentration of 0.82 nM. Nonspecific binding was determined with 50 µM of Clozapine. The assay volume was 25 l. TopSeal-A were applied onto Flashplate microplates and they were incubated at room temperature for 240 minutes in darkness. The radioactivity were quantified by liquid scintillation spectrophotometry (Wallac 1450 Microbeta Trilux) with a count delay of 4 minutes prior to counting and a counting time of 30 seconds per well. Competition binding data were analyzed by using the LIGAND program (Munson and Rodbard, LIGAND: A versatile, computerized approach for characterization of ligandbinding systems. Anal. Biochem. 107: 220-239, 1980) and assays were performed in triplicate determinations for each point.

T1 sequence (P34969 whole entry): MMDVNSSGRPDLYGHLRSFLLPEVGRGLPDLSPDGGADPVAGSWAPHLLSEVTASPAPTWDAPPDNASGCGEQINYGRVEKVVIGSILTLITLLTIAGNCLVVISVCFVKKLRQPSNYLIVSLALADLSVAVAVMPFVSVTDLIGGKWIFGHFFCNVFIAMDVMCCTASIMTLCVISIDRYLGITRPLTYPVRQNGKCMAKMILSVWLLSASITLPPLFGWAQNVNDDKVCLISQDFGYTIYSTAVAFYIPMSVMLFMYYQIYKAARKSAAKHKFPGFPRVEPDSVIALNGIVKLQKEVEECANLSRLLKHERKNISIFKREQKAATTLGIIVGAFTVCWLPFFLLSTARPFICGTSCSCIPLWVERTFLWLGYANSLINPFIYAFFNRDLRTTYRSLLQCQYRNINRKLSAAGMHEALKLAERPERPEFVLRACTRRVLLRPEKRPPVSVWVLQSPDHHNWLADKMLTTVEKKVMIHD

Q: For `COc1ccc(-c2c(C)c(C)nn2C(C)C)cc1CCN(C)C` [Example 31, 2-(5-(1-isopropyl-3,4-dimethyl-1H-pyrazol-5-yl)-2-methoxyphenyl)-N,N-dimethyl ethanamine], which Ki is on record?
A: 83.1 nM

Q: For `COc1ccc(-c2c(C)c(C)nn2C)cc1CCN(C)C` [Example 9, 2-(2-methoxy-5-(1,3,4-trimethyl-1H-pyrazol-5-yl)phenyl)-N,N-dimethylethanamine], which Ki is on record?
A: 113 ± 2.6 nM

Q: For `CCc1c(C)nn(C)c1-c1ccc(OC)c(CCN(C)C)c1` [Example 3, 2-(5-(4-ethyl-1,3-dimethyl-1H-pyrazol-5-yl)-2-methoxyphenyl)-N,N-dimethyl ethanamine], which Ki is on record?
A: 599 nM

Q: How did the Ki turn out when `CCn1nc(C)c(C)c1-c1ccc(OC)c(CCN(C)C)c1` [Example 28, 2-(5-(1-ethyl-3,4-dimethyl-1H-pyrazol-5-yl)-2-methoxyphenyl)-N,N-dimethyl ethanamine] was run?
A: 81.9 nM

Same assay, conditions: h5HT7 expressed in CHO cells; radioligand [125I]LSD 0.82 nM; nonspecific binding with clozapine; triplicate determinations; read-out: 5-HT7 Ki

Q: With `Cc1nn(CC(F)(F)F)c(-c2ccc(O)c(CCN(C)C)c2)c1C` [Example 35, 4-(3,4-dimethyl-1-(2,2,2-trifluoroethyl)-1H-pyrazol-5-yl)-2-(2-(dimethylamino)ethyl)phenol] as the compound, how does the Ki read?
A: 320 nM

Q: For `CCn1nc(C)c(C)c1-c1ccc(O)c(CCN(C)C)c1` [Example 29, 2-(2-(dimethylamino)ethyl)-4-(1-ethyl-3,4-dimethyl-1H-pyrazol-5-yl)phenol], which Ki is on record?
A: 102 nM

Q: With `COc1ccc(-c2c(-c3ccccc3)c(C)nn2-c2ccccc2)cc1CCN(C)C` [Example 19, 2-(2-methoxy-5-(3-methyl-1,4-diphenyl-1H-pyrazol-5-yl)phenyl)-N,N-dimethyl ethanamine] as the compound, how does the Ki read?
A: 447 ± 64.8 nM

Q: For `CNCCc1cc(-c2c(C)c(C)nn2C)ccc1O` [Example 11, 2-(2-(methylamino)ethyl)-4-(1,3,4-trimethyl-1H-pyrazol-5-yl)phenol], which Ki is on record?
A: 23.5 ± 5.2 nM

Q: Which Ki does the source give for `Cc1nn(C)c(-c2ccc(O)c(CCN(C)C)c2)c1C` [Example 10, 2-(2-(dimethylamino)ethyl)-4-(1,3,4-trimethyl-1H-pyrazol-5-yl)phenol] here?
A: 102 nM

Q: For `COc1ccc(-c2c(C)c(C)nn2CC(F)(F)F)cc1CCN(C)C` [Example 34, 2-(5-(3,4-dimethyl-1-(2,2,2-trifluoroethyl)-1H-pyrazol-5-yl)-2-methoxyphenyl)-N,N-dimethyl ethanamine], which Ki is on record?
A: 146 nM

Q: Which Ki does the source give for `Cc1nn(-c2ccccc2)c(-c2ccc(O)c(CCN(C)C)c2)c1C` [Example 23, 4-(3,4-dimethyl-1-phenyl-1H-pyrazol-5-yl)-2-(2-(dimethylamino)ethyl)phenol] here?
A: 611 nM

Q: `Cc1nn(C(C)C)c(-c2ccc(O)c(CCN(C)C)c2)c1C` [Example 32, 2-(2-(dimethylamino)ethyl)-4-(1-isopropyl-3,4-dimethyl-1H-pyrazol-5-yl)phenol] was tested. Which Ki did it give?
A: 150 nM

Q: For `CCc1c(C)nn(C)c1-c1cccc(CCN(C)C)c1` [Example 2, 2-(3-(4-ethyl-1,3-dimethyl-1H-pyrazol-5-yl)phenyl)-N,N-dimethylethanamine], which Ki is on record?
A: 597 nM

Q: How did the Ki turn out when `COc1ccc(-c2c3c(nn2-c2ccccc2)CCCC3)cc1CCN(C)C` [Example 25, 2-(2-methoxy-5-(2-phenyl-4,5,6,7-tetrahydro-2H-indazol-3-yl)phenyl)-N,N-dimethyl ethanamine] was run?
A: 420 nM

Q: `Cc1nn(C)c(-c2cccc(CCN(C)C)c2)c1C` [Example 8, N,N-dimethyl-2-(3-(1,3,4-trimethyl-1H-pyrazol-5-yl)phenyl)ethanamine] was tested. Which Ki did it give?
A: 261 ± 102 nM

Q: Which Ki does the source give for `Cc1nn(C(C)C)c(-c2cccc(CCN(C)C)c2)c1C` [Example 30, 2-(3-(1-isopropyl-3,4-dimethyl-1H-pyrazol-5-yl)phenyl)-N,N-dimethylethanamine] here?
A: 300 nM

Q: With `COc1ccc(-c2c(C)c(C)nn2-c2ccccc2)cc1CCN(C)C` [Example 22, 2-(5-(3,4-dimethyl-1-phenyl-1H-pyrazol-5-yl)-2-methoxyphenyl)-N,N-dimethyl ethanamine] as the compound, how does the Ki read?
A: 391 nM

Q: For `CCc1c(C)nn(C)c1-c1ccc(O)c(CCN(C)C)c1` [Example 4, 2-(2-(dimethylamino)ethyl)-4-(4-ethyl-1,3-dimethyl-1H-pyrazol-5-yl)phenol], which Ki is on record?
A: 577 ± 81.6 nM

Q: Which Ki does the source give for `Cc1nn(CC(F)(F)F)c(-c2cccc(CCN(C)C)c2)c1C` [Example 33, 2-(3-(3,4-dimethyl-1-(2,2,2-trifluoroethyl)-1H-pyrazol-5-yl)phenyl)-N,N-dimethyl ethanamine] here?
A: 527 nM
